The target in the assay is Aldo-keto reductase family 1 member B1 (Rattus norvegicus) (UniProt P07943). The assay is described as follows: Inhibition of Rattus norvegicus albino (rat) kidney aldose reductase using D-L-glyceraldehyde as substrate assessed as decrease in NADPH concentration at 3.3 x 10^-6 M after 5 min by spectrophotometric analysis.

Consider `C=C(NC(C)=O)C(=O)NCCC`, for which the inhibition is 4.32%.
In the case of `C=C(NC(C)=O)C(=O)NC(C)CC` (stereo not given) it was 0%; in that of `C=C(NC(C)=O)C(=O)NC(C)C`, 3.77%.
Regarding `C=C(NC(C)=O)C(=O)N1CCCCC1`, the inhibition worked out at 3.4%.
As for `C=C(NC(C)=O)C(=O)NCCCCl`, the inhibition stood at 19.6%.
With `C=C(NC(C)=O)C(=O)Nc1nnc(CC)s1`, the inhibition amounted to 4.5%.
Regarding `C=C(NC(C)=O)C(=O)NCCC(C)C`, the inhibition was determined as 4.13%.
In the case of `C=C(NC(C)=O)C(=O)NCc1ccccc1OC` it was 0%; in that of `C=C(NC(C)=O)C(=O)NCc1ccccc1Cl`, 7.26%.
Take `C=C(NC(C)=O)C(=O)NC(C)(C)CC`: the inhibition was found to be 3.22%.
With `C=C(NC(C)=O)C(=O)NC`, the inhibition was found to be 9.46%.
For `C=C(NC(C)=O)C(=O)NCC`, the inhibition was determined as 13.1%.
Consider `C=C(NC(C)=O)C(=O)NCc1ccc(Cl)cc1`, for which the inhibition came out at 2.3%.
On to `C=C(NC(C)=O)C(=O)N1CCCC1`, for which the inhibition was determined as 0%.
In the case of `C=C(NC(C)=O)C(=O)NCc1ccccc1` it was 2.48%.

By inhibition is commonly meant the percentage by which the read-out fell short of the control.
